Values quoted from earlier work, collected in patent US9293280B2, “Mixture of hydrofluoroolefine and hydrofluorocarbide to improve the internal ARC resistance in medium and high voltage electric apparatus” (priority 2012, dated 2016).

Tests used:
human = conditions: average limiting content, 8 hours of work for 5 days per week without harmful effect
animal population = conditions: causing the death of 50% of an animal population

SMILES | average exposure value AEV (human) | lethal dose LD50 (animal population)
O=C(C(F)(F)F)C(F)(C(F)(F)F)C(F)(F)F [C5K, decafluoro-2-methylbutan-3-one] | 1000 ppm | greater than 200 000 ppm
F/C=C/C(F)(F)F [HFO-1234ze, trans-1,3,3,3-tetrafluoro-1-propene] | 1000 ppm | > 200 000 ppm
